Columns and labels:
[1] = Photoacoustic spectra of contaminated heparin in the presence of methylene blue; conditions: 5 wt. % contaminated heparin
Text: In one exemplary implementation, the photoacoustic imaging system used for measurements is a Vevo 2100 commercial instrument (Visualsonics). The scanner is equipped with a 21 MHz-centered transducer (LZ250) and a Q-switched Nd:YAG laser. The laser uses an optical parameteric oscillator and second harmonic generator to generate a tunable laser between 680 and 970 nm with a 1 nm step size and a pulse of 4 to 6 ns at 20 Hz. The peak energy is 45±5 mJ at 20 Hz at the source. The full field-of-view is 14-23 mm wide. The acquisition rate is 5 frames per second. The samples were prepared in small tubing fixed in a self-developed phantom holder which was aligned at ˜10 mm under the transducer. The laser energy was calibrated and optimized using the build-in energy power meter and software before measurements. 100% laser energy was used with 21 MHz frequency and the gain was optimized from 10-40 dB to obtain 3D scans at 680-850 nm as well as photoacoustic spectra from 680 to 850 nm.
1×PBS solution was prepared via dissolving one PBS tablet into 200 mL deionized water. The 2 mM methylene blue was prepared fresh by dissolving reagent-grade powder in PBS followed by sonication for 30 minutes at 40 C and then filtering through 0.22 μm. The 0.4 mM methylene blue was prepared by dissolving 2 mM methylene blue with PBS. A batch of OSCS/heparin mixture that simulates OSCS contaminated heparin was prepared at the following steps: 100 μL of 50, 25, 5, 2.5, 0.5, 0.25 μg/mL OSCS, and PBS was added into 100 uL 1000 μg/mL heparin prepared in PBS solution, respectively. The working concentration of OSCS in the above solutions was 25, 12.5, 2.5, 1.25, 0.25, 0.125, 0.025, and 0 μg/mL OSCS, respectively, and the working concentration of heparin is 500 μg/mL. In other words, the heparin solution was contaminated by 5, 2.5, […], 0.05, 0.025, and 0%. The contrast signal of methylene blue/heparin mixture was optimized at the combination of 0.4 mM methylene blue and […]. […]
Data analysis were performed using the scanner's built-in software. […] The average and standard deviation were calculated. […]

Antithrombin = Antithrombin (Homo sapiens, UniProt P01008); conditions: cited from earlier work
[2] = Photoacoustic response of nanoparticle-bound methylene blue coating to heparin and protamine; conditions: 50 U/mL heparin-treated device, protamine 8 mg/mL
Procedure: The surface charge of these nanoparticle is −23 mV, which is too negative to allow association between the nanoparticle-bound dye and negatively charged heparin. Therefore, the charge of the particle was changed to produce a material that was both stable and responsive to heparin. To tune the nanoparticles, the same were treated with (3-mercaptopropyl) trimethoxysilane (MPTMS) to adjust the zeta potential to −15 mV (SSNP-SH). This material was used with agar gel to create a coating on a catheter tube.
More importantly, the methylene blue on these modified nanoparticles remain responsive to heparin with 51% more photoacoustic signal at 10 U/mL heparin than PBS for 1 h incubation. The signal enhancement was stable after constant imaging at 680 nm for 9 min (RSD<4%) This system was also reversible. When the 50 U/mL-treated device was reversed with protamine (8 mg/mL), the signal decreased by 42% versus no protamine treatment. The higher signal of the heparin-treated hybrid versus PBS-treated hybrid is likely due to interactions between methylene blue and heparin, which increases the photoacoustic signal and decreases diffusion of this complex and free methylene blue into solution.

Sequence of Antithrombin (P01008 33-464): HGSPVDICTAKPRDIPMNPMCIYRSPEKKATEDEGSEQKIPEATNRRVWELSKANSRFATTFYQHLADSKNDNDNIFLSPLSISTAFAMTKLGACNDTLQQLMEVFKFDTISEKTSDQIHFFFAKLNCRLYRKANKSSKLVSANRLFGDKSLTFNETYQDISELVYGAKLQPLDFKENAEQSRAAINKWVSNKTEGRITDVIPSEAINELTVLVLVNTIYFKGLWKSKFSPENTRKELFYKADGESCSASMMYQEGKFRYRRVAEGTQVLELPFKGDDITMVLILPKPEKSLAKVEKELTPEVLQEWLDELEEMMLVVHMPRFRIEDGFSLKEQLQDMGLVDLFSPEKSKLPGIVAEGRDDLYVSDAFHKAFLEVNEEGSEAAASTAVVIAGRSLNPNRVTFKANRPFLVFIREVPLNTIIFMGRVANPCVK

| Substance | 715 nm peak amplified compared to pure heparin in methylene blue [1] [%] | further results |
| --- | --- | --- |
| chondroitin sulfate [CS] | 476 |  |
| dermatan sulfate [DS] | 475 |  |
| heparin |  | increase of the activity of antithrombin (Antithrombin): 10^3 fold |
| oversulfated chondroitin sulfate [OSCS] | 400 |  |
| protamine sulfate |  | signal decrease versus no protamine treatment [2]: 42% |
